Data taken from patent publication US10821115B2, “Compounds that inhibit Mcl-1 protein” (priority 2017, dated 2020).
Where two headings read alike, the source gives them in different places.

Columns and labels:
[1] = biological target: recombinant human Mcl-1 (residues 171-327) / Bim interaction (Homo sapiens (Human), UniProt Q07820); assay: biochemical; assay type: binding; conditions: read-out: Mcl-1 HTRF IC50
[2] = system: human multiple myeloma cell line, OPM-2; assay: Cell viability assay (OPM-2 10 FBS), CellTiter-Glo; assay type: cell-based
How it was run: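 Steps: plate cells at 3000/well in 10% FBS growth medium, add serially diluted compound, incubate 16 h at 37 °C with 5% CO2, add detection reagent and read luminescence after 25 min. A 4-parameter logistic model gives IC50.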

[3] = TR-FRET, Mcl-1(171-327) / biotin-Bim (51-76)
[4] = Homo sapiens, OPM-2, 16 h, read-out: OPM-2 10% FBS IC50 IP, OPM-2 cells, 10% FBS, 16 h, CellTiter-Glo
[5] = read-out: OPM-2 10% FBS IC50 IP, OPM-2 cells, 10% FBS, 16 h, CellTiter-Glo
[6] = 0.1 nM Mcl-1(171-327), 0.05 nM biotin-Bim (51-76)
[7] = Homo sapiens, OPM-2, 16 h, read-out: OPM-2 10% FBS IC50 IP, OPM-2 cells, 10% FBS, 16 h incubation

Chain of recombinant human Mcl-1 (residues 171-327) / Bim interaction (Q07820 171-327): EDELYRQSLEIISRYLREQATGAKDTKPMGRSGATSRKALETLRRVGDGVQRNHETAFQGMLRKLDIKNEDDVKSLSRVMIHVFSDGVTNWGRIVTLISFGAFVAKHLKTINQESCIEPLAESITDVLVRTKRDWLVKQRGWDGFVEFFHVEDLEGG

SMILES	IC50 [1, 3]	IC50 [2, 4]	IC50 [1, 6]	further results
CC[C@]1(O)CCC[C@H](C)[C@@H](C)S(=O)(=O)NC(=O)c2ccc3c(c2)N(C[C@@H]2CC[C@H]21)C[C@@]1(CCCc2cc(Cl)ccc21)CO3 [Example 100076, (1S,3′R,6′R,7′S,11′S,12′R)-6-chloro-7′-ethyl-7′-hydroxy-11′,12′-dimethyl-3,4-dihydro-2H,15′H-spiro[naphthalene-1,22′-[20]oxa[13]thia[1,14]diazatetracyclo [14.7.2.0~3,6~.0~19,24~]pentacosa[16,18,24]trien]-15′-one 13′,13′-dioxide]	9.66 nM	2670 nM		
CO[C@@]1(C#CCO)/C=C/C[C@H](C)[C@@H](C)S(=O)(=O)NC(=O)c2ccc3c(c2)N(C[C@@H]2CC[C@H]21)C[C@@]1(CCCc2cc(Cl)ccc21)CO3 [Example 100344, (1S,3′R,6′R,7′S,8′E,11′S,12′R)-6-chloro-7′-(3-hydroxy-1-propyn-1-yl)-7′-methoxy-11′,12′-dimethyl-3,4-dihydro-2H,15′H-spiro[naphthalene-1,22′-[20]oxa[13]thia[1,14]diazatetracyclo [14.7.2.0~3,6~.0~19,24~]pentacosa[8,16,18,24]tetraen]-15′-one 13′,13′-dioxide]	0.309 nM	290 nM		
C[C@@H]1[C@@H](C)CCC[C@](CO)(OCCN2CCOCC2)[C@@H]2CC[C@H]2CN2C[C@@]3(CCCc4cc(Cl)ccc43)COc3ccc(cc32)C(=O)NS1(=O)=O [Example 100284, (1S,3′R,6′R,7′S,11′S,12′R)-6-chloro-7′-(hydroxymethyl)-11′,12′-dimethyl-7′-(2-(4-morpholinyl)ethoxy)-3,4-dihydro-2H,15′H-spiro[naphthalene-1,22′-[20]oxa[13]thia[1,14]diazatetracyclo [14.7.2.0~3,6~.0~19,24~]pentacosa[16,18,24]trien]-15′-one 13′,13′-dioxide]	0.285 nM			IC50 [2, 5]: 396 nM
C[C@@H]1[C@@H](C)C/C=C/[C@@](O)(CC=O)[C@@H]2CC[C@H]2CN2C[C@@]3(CCCc4cc(Cl)ccc43)COc3ccc(cc32)C(=O)NS1(=O)=O [Example 100171, ((1S,3′R,6′R,7′S,8′E,11′S,12′R)-6-chloro-7′-hydroxy-11′,12′-dimethyl-13′,13′-dioxido-15′-oxo-3,4-dihydro-2H-spiro[naphthalene-1,22′-[20]oxa[13]thia[1,14]diazatetracyclo [14.7.2.0~3,6~.0~19,24~]pentacosa[8,16,18,24]tetraen]-7′-yl)acetaldehyde]	0.578 nM	868 nM		
COCC[C@@H]1[C@@H](C)C/C=C/[C@](CN2CCN(C(COC)COC)CC2)(OC)[C@@H]2CC[C@H]2CN2C[C@@]3(CCCc4cc(Cl)ccc43)COc3ccc(nc32)C(=O)NS1(=O)=O [Example 25, (1S,3′R,6′R,7′S,8′E,11′S,12′R)-6-chloro-7′-methoxy-12′-(2-methoxyethyl)-7′-((4-(2-methoxy-1-(methoxymethyl)ethyl)-1-piperazinyl)methyl)-11′-methyl-3,4-dihydro-2H,15′H-spiro[naphthalene-1,22′-[20]oxa[13]thia[1,14,25]triazatetracyclo [14.7.2.0~3,6~.0~19,24~]pentacosa[8,16,18,24]tetraen]-15′-one 13′,13′-dioxide]			0.113 nM	IC50 [2, 7]: 41 nM
C[C@@H]1[C@@H](C)C/C=C/[C@@](CN2CCN3CCOC[C@@H]3C2)(OCC(F)(F)F)[C@@H]2CC[C@H]2CN2C[C@@]3(CCCc4cc(Cl)ccc43)COc3ccc(cc32)C(=O)NS1(=O)=O [Example 50, (1S,3′R,6′R,7′R,8′E,11′S,12′R)-6-chloro-7′-((9aS)-hexahydropyrazino[2,1-c][1,4]oxazin-8(1H)-ylmethyl)-11′,12′-dimethyl-7′-(2,2,2-trifluoroethoxy)-3,4-dihydro-2H,15′H-spiro[naphthalene-1,22′-[20]oxa[13]thia[1,14]diazatetracyclo [14.7.2.0~3,6~.0~19,24~]pentacosa[8,16,18,24]tetraen]-15′-one 13′,13′-dioxide]			0.736 nM	IC50 [2, 7]: 1530 nM
CC#C[C@]1(OC)/C=C/C[C@H](C)[C@@H](C)S(=O)(=O)NC(=O)c2ccc3c(c2)N(C[C@@H]2CC[C@H]21)C[C@@]1(CCCc2cc(Cl)ccc21)CO3 [Example 100501, (1S,3′R,6′R,7′S,8′E,11′S,12′R)-6-chloro-7′-methoxy-11′,12′-dimethyl-7′-(1-propyn-1-yl)-3,4-dihydro-2H,15′H-spiro[naphthalene-1,22′-[20]oxa[13]thia[1,14]diazatetracyclo [14.7.2.0~3,6~.0~19,24~]pentacosa[8,16,18,24]tetraen]-15′-one 13′,13′-dioxide]	0.09 nM	518 nM		
C[C@@H]1[C@@H](C)C/C=C/[C@@](CC(=O)N(C)C)(OCCN2CCOCC2)[C@@H]2CC[C@H]2CN2C[C@@]3(CCCc4cc(Cl)ccc43)COc3ccc(cc32)C(=O)NS1(=O)=O (single isomer, unassigned) [Example 100310]	0.152 nM	120 nM		
CO[C@]1(CN2CCN3CC[C@H](F)C[C@@H]3C2)/C=C/C[C@H](C)[C@@H](C)S(=O)(=O)NC(=O)c2ccc3c(c2)N(C[C@@H]2CC[C@H]21)C[C@@]1(CCCc2cc(Cl)ccc21)CO3 (single isomer, unassigned) [Example 326]			0.307 nM	IC50 ([2]; read-out: OPM-2 10% FBS IC50 IP, OPM-2 cells, 10% FBS, 16 h incubation): 488 nM
COC[C@@H]1[C@@H](C)C/C=C/[C@](CN2CCN3CCOC[C@@H]3C2)(OC)[C@@H]2CC[C@H]2CN2C[C@@]3(CCCc4cc(Cl)ccc43)COc3ccc(cc32)C(=O)NS1(=O)=O [Example 168, (1S,3′R,6′R,7′S,8′E,11′S,12′S)-6-chloro-7′-((9aS)-hexahydropyrazino[2,1-c][1,4]oxazin-8(1H)-ylmethyl)-7′-methoxy-12′-(methoxymethyl)-11′-methyl-3,4-dihydro-2H,15′H-spiro[naphthalene-1,22′-[20]oxa[13]thia[1,14]diazatetracyclo [14.7.2.0~3,6~.0~19,24~]pentacosa[8,16,18,24]tetraen]-15′-one 13′,13′-dioxide]			0.138 nM	IC50 [2, 7]: 52 nM
CO[C@]1(CN2CCCN(C(C)C)CC2)/C=C/C[C@H](C)[C@@H](C)S(=O)(=O)NC(=O)c2ccc3c(c2)N(C[C@@H]2CC[C@H]21)C[C@@]1(CCCc2cc(Cl)ccc21)CO3 [Example 327, (1S,3′R,6′R,7′R,8′E,11′S,12′R)-6-chloro-7′-methoxy-11′,12′-dimethyl-7′-((4-(1-methylethyl)-1,4-diazepan-1-yl)methyl)-3,4-dihydro-2H,15′H-spiro[naphthalene-1,22′-[20]oxa[13]thia[1,14]diazatetracyclo [14.7.2.0~3,6~.0~19,24~]pentacosa[8,16,18,24]tetraen]-15′-one 13′,13′-dioxide]			0.214 nM	IC50 [2, 7]: 174 nM
C[C@@H]1[C@@H](C)CCC[C@@](O)(CC(=O)N2CCCC2)[C@@H]2CC[C@H]2CN2C[C@@]3(CCCc4cc(Cl)ccc43)COc3ccc(cc32)C(=O)NS1(=O)=O [Example 100107, (1S,3′R,6′R,7′R,11′S,12′R)-6-chloro-7′-hydroxy-11′,12′-dimethyl-7′-(2-oxo-2-(1-pyrrolidinyl)ethyl)-3,4-dihydro-2H,15′H-spiro[naphthalene-1,22′-[20]oxa[13]thia[1,14]diazatetracyclo [14.7.2.0~3,6~.0~19,24~]pentacosa[16,18,24]trien]-15′-one 13′,13′-dioxide]	0.296 nM	181 nM		
CO[C@@]1(c2ccc(F)nc2)/C=C/C[C@H](C)[C@@H](C)S(=O)(=O)NC(=O)c2ccc3c(c2)N(C[C@@H]2CC[C@H]21)C[C@@]1(CCCc2cc(Cl)ccc21)CO3 (single isomer, unassigned) [Example 100535]	0.57 nM			IC50 [2, 5]: 964 nM
CO[C@@]1(CC(=O)N(C)C(C)(C)C)/C=C/C[C@H](C)[C@@H](C)S(=O)(=O)NC(=O)c2ccc3c(c2)N(C[C@@H]2CC[C@H]21)C[C@@]1(CCCc2cc(Cl)ccc21)CO3 [Example 100008, 2-((1 S,3′R,6′R,7′S,8′E,11′S, 12′R)-6-chloro-7′-methoxy-11′,12′-dimethyl-13′,13′-dioxido-15′-oxo-3,4-dihydro-2H-spiro[naphthalene-1,22′-[20]oxa[13]thia[1,14]diazatetracyclo[14.7.2.0-3,6˜.0˜19,24˜]pentacosa[8,16,18,24]tetraen]-7′-yl)-N-methyl-N-(2-methyl-2-propanyl)acetamide]	0.17 nM	541 nM		
C[C@@H]1[C@@H](C)CCC[C@]2(COC(=O)O2)[C@@H]2CC[C@H]2CN2C[C@@]3(CCCc4cc(Cl)ccc43)COc3ccc(cc32)C(=O)NS1(=O)=O (single isomer, unassigned) [Example 100055]	1.27 nM	4630 nM		
C[C@@H]1[C@@H](C)C/C=C/[C@@](O)(CC(=O)N2CC(F)(F)C2)[C@@H]2CC[C@H]2CN2C[C@@]3(CCCc4cc(Cl)ccc43)COc3ccc(cc32)C(=O)NS1(=O)=O [Example 100297, (1S,3′R,6′R,7′S,8′E,11′S,12′R)-6-chloro-7′-(2-(3,3-difluoro-1-azetidinyl)-2-oxoethyl)-7′-hydroxy-11′,12′-dimethyl-3,4-dihydro-2H,15′H-spiro[naphthalene-1,22′-[20]oxa[13]thia[1,14]diazatetracyclo [14.7.2.0~3,6~.0~19,24~]pentacosa[8,16,18,24]tetraen]-15′-one 13′,13′-dioxide]	0.115 nM	168 nM		
